Here are results for nine compounds from US10364263B2, “Cyclic phosphates and cyclic phosphoramidates for the treatment of neurologic disorders” (Retrophin, Inc., priority 2015, dated 2019).

In data set [1] the test system is PANK2 silenced human neuroblastoma IMR32 cells (PANK2−/−). As to the kind of experiment: Coenzyme A assay in PANK2 silenced cells (LC-MS quantification of free CoA). It is filed as cell-based. As to conditions: compound added twice (24 h + 24 h), relative to 0.1% DMSO controls. In outline:
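PANK2 shRNA-silenced IMR32 neuroblastoma cells were treated with compound (0.1% DMSO) for 24 h, then re-dosed with fresh compound for a further 24 h at 37 °C. TFA extracts of 1×10^6 cells were assayed for free CoA by LC-MS/MS (MRM 768.1→261.6/136.1). Results are given as fold change versus DMSO controls.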

The nature of data set [2]: Stability in human hepatocytes. It is filed as in vitro ADME. How it is done: (§1) Stability in hepatocytes for select compounds disclosed in the application was evaluated in two species (mouse and human) according to the following procedure. Compounds and positive control samples were dissolved in 100% DMSO at 5 mM. Cryopreserved hepatocytes were thawed and resuspended in Hepatocyte Basal Medium (HBM-Lonza CC-3199) supplemented with CC-4182 (complete hepatocyte culture medium). Test compounds were diluted into cell suspension (1 million cells/ml) from the stock solutions to have a test compound concentration of 5 μM (0.1% DMSO). Incubation was performed in 24-well plates, at 37° C. in a DUBNOFF water bath, under low shaking. Each compound was tested at 6 time points, in duplicates (0, 15, 30, 60, 120 and 240 min). At each time point, an aliquot of 120 μl was taken and transferred to a 96-well deep plate. The reaction was stopped with the addition of one volume of 100% acetonitrile plus 0.1% formic acid and the appropriate internal standard. Then samples were centrifuged at 1100×g for 30 min at +4° C. and supernatants were transferred to a new 96-deepwell plate. Samples were evaporated under N2 and reconstituted in H2O/ACN 0.1% Formic Acid (98:2). Analysis was performed without a calibration curve (Acquity UPLC-Waters; Sciex API4000). Time 0 was obtained adding acetonitrile before addition of the test compound. […] The half-life (t1/2) expressed in hours is derived using Equation 1 as shown in Example 64.

The nature of data set [3]: Stability in mouse hepatocytes. It is filed as in vitro ADME. The following applies: t1/2, Mouse Hepatocytes. How it is done:
as §1

The mark [4] stands for this setting: t1/2, Human Hepatocytes, Diastereoisomer A.
[5] abbreviates: t1/2, Human Hepatocytes, Diastereoisomer B.

With `COC(=O)CCNC(=O)[C@@H]1O[P@@](=O)(Oc2ccc(C(F)(F)F)cc2)OCC1(C)C` [2-119, methyl 3-((2S,4R)-5,5-dimethyl-2-oxido-2-(4-(trifluoromethyl)phenoxy)-1,3,2-dioxaphosphinane-4-carboxamido)propanoate], in data set [1], the “PANK2−/− CoA (Fold Increase): fold increase in Coenzyme A (CoA) levels relative to controls” value is on record as 1.67 Fold Increase. Further, the half-life at 5 µM in data set [2] (Diastereoisomer A (upfield shift in 31P NMR), 5 μM, 1 million cells/ml, 37° C., human hepatocytes, read-out: t1/2, Human Hepatocytes, Diastereoisomer A (converted)) is 30.6 min.

With `COC(=O)[C@H](C)NP1(=O)OCC(C)(C)[C@H](C(=O)NCCC(=O)OCc2cc(C)on2)O1` (stereo partly drawn) [compound 21, (2S)-methyl 2-(((4R)-5,5-dimethyl-4-((3-((5-methylisoxazol-3-yl)methoxy)-3-oxopropyl)carbamoyl)-2-oxido-1,3,2-dioxaphosphinan-2-yl)amino)propanoate], the half-life at 5 µM in data set [3] (Diastereoisomer A) is less than 15 min; in data set [3] (Diastereoisomer B) it was less than 15 min; in data set [2] (setting [4]) it was 70.8 min; in data set [2] (setting [5]), 40.2 min.

On to `COC(=O)CCNC(=O)[C@@H]1OP(=O)(OCOC(=O)c2scnc2C)OCC1(C)C` (stereo partly drawn) [Compound No. 2-139, (((4R)-4-((3-methoxy-3-oxopropyl)carbamoyl)-5,5-dimethyl-2-oxido-1,3,2-dioxaphosphinan-2-yl)oxy)methyl 4-methylthiazole-5-carboxylate], for which, in data set [1], the “PANK2−/− CoA (Fold Increase): fold increase in Coenzyme A (CoA) levels relative to controls” value came to 44.21 Fold Increase. Also, the half-life at 5 µM was 30.6 min in data set [2] (setting [4]) and 15.6 min in data set [2] (setting [5]).

Consider `COC(=O)CCNC(=O)[C@@H]1OP(=O)(OCOC(=O)c2ccns2)OCC1(C)C` (stereo partly drawn) [Compound No. 2-140, (((4R)-4-((3-methoxy-3-oxopropyl)carbamoyl)-5,5-dimethyl-2-oxido-1,3,2-dioxaphosphinan-2-yl)oxy)methyl isothiazole-5-carboxylate], for which the “PANK2−/− CoA (Fold Increase): fold increase in Coenzyme A (CoA) levels relative to controls” value in data set [1] is reported as 37.02 Fold Increase. Also, the half-life at 5 µM in data set [2] (setting [4]) and in data set [2] (setting [5]) was less than 15 min in each case.

For the compound `COC(=O)[C@H](C)N[P@@]1(=O)OCC(C)(C)[C@H](C(=O)NCCC(=O)OCc2cn(C)cn2)O1` [compound 22, methyl ((2R,4R)-5,5-dimethyl-4-((3-((1-methyl-1H-imidazol-4-yl)methoxy)-3-oxopropyl)carbamoyl)-2-oxido-1,3,2-dioxaphosphinan-2-yl)-L-alaninate], the results for the half-life at 5 µM in data set [3] (Diastereoisomer A) and in data set [2] (setting [4]) were 37.2 min and more than 240 min, respectively.

For the compound `COC(=O)CCNC(=O)[C@@H]1OP(=O)(OCOC(C)=O)OCC1(C)C` (stereo partly drawn) [Compound No. 68, Methyl 3-((4R)-2-(acetoxymethoxy)-5,5-dimethyl-2-oxido-1,3,2-dioxaphosphinane-4-carboxamido)propanoate], the half-life at 5 µM in data set [3] (Diastereoisomer A), in data set [3] (Diastereoisomer B), in data set [2] (setting [4]) and in data set [2] (setting [5]) was less than 15 min throughout. The “PANK2−/− CoA (Fold Increase): fold increase in Coenzyme A (CoA) levels relative to controls” value in data set [1] was 125.97 Fold Increase.

For the compound `COC(=O)CCNC(=O)[C@@H]1O[P@](=O)(OCOC(=O)NCCOC(=O)[C@@H](NC(=O)OCc2ccccc2)C(C)C)OCC1(C)C` (single isomer, unassigned) [2-161], the half-life at 5 µM in data set [3] (Diastereoisomer A) was less than 15 min; in data set [2] (setting [4]) it was 25.8 min. Further, in data set [1], the “PANK2−/− CoA (Fold Increase): fold increase in Coenzyme A (CoA) levels relative to controls” value is given as 71.14 Fold Increase.

Regarding `COC(=O)CCNC(=O)[C@@H]1O[P@@](=O)(OCOC(=O)NCCOC(=O)[C@@H](NC(=O)OCc2ccccc2)C(C)C)OCC1(C)C` (single isomer, unassigned) [2-160], the half-life at 5 µM in data set [3] (Diastereoisomer A) is less than 15 min; in data set [2] (setting [4]), 36.6 min. Also, the “PANK2−/− CoA (Fold Increase): fold increase in Coenzyme A (CoA) levels relative to controls” value in data set [1] came out at 7.99 Fold Increase.

As to `COC(=O)CCNC(=O)[C@@H]1OP(=O)(OCOC(=O)NCCSC(=O)C(C)(C)C)OCC1(C)C` (stereo partly drawn) [2-143, methyl 3-((4R)-5,5-dimethyl-2-oxido-2-((((2-(pivaloylthio)ethyl)carbamoyl)oxy)methoxy)-1,3,2-dioxaphosphinane-4-carboxamido)propanoate], in data set [1], the “PANK2−/− CoA (Fold Increase): fold increase in Coenzyme A (CoA) levels relative to controls” value turned out to be 1.39 Fold Increase. Also, the half-life at 5 µM was 25.2 min in data set [2] (setting [4]) and 19.2 min in data set [2] (setting [5]).
